Ends that are not written are not given here.
System: middle cerebral artery (MCA) permanent occlusion stroke model
Test: Permanent MCA 24-hour occlusion stroke model
Type: in vivo, Sprague-Dawley rats
Method: The in vivo neuroprotective effects of CMX-9236 were investigated in both temporary and permanent occlusion stroke models in Sprague-Dawley rats using an intraluminal suture of the middle cerebral artery (MCA) occlusion method (Zea Longa et al., Stroke, 20: 84 (1989)). Briefly, a 4-0 silicone-coated suture was inserted through the right common carotid artery to block the MCA orifice. In the temporary model, CMX-9236 (6.2 mg/kg/hr) or vehicle was administered via the femoral vein at 30 minutes after the start of a 2-hour occlusion for a 4-hour continuous infusion; the rats were then reperfused by withdrawing the suture at […] after the MCA occlusion. All experiments were performed in a blinded and randomized manner, and rectal temperature was maintained at 37° C. The animals were sacrificed, and their brains were removed, sectioned into six 2-mm-thick coronal slices and stained with 2,3,5-triphenyltetrazolium chloride solution (Bederson et al., Stroke, 17:1304 (1986)) to visualize the extent of brain damage for the calculation of the corrected hemispheric infarct volumes (Nagasawa and Kogure, Stroke, 20:1037 (1989); Li et al., J. Cereb. Blood Flow Metab., 17:1132 (1997)). […] This represents a significant reduction of infarct size (35±5%, p=0.01, student t-test) for the CMX-9236-treated group in the temporary occlusion model. There was also a 58+11% improvement in the neurological scoring (Minematsu et al., Neurology, 42:235 (1992)) for the peptide-treated group versus controls at the end of 24 hours.
In the permanent occlusion stroke model, the blood flow to the MCA territory was blocked for the total 24-hour period. A continuous i.v. infusion (0.5 ml/hr) of the CMX-9236 peptide (2.04 mg/kg/hr) or vehicle was initiated at 30 minutes after occlusion for 6 hours, followed by a bolus i.v. infusion of CMX-9236 (4.0 mg/kg in 0.5 ml delivered over 10 minutes) or vehicle at 12 hours after occlusion. The corrected infarct volumes were 127.5±18 mm^3 versus 216±18 mm^3 for drug-treated animals and controls, respectively. This represents a significant decrease (41±5%, p=0.003, student t-test) in infarct size for the drug-treated group as compared to the vehicle-treated control group (n=10 per group) in the permanent model, indicating a substantial rescue of brain tissue. These findings indicate that CMX-9236 has neuroprotective properties post-trauma in vivo, reducing the brain damage generated by cerebral ischemia.

KKDGDGDFAIDAPE [CMX-9236, uncapped peptide]
corrected infarct volume (2.04 mg/kg/hr i.v. for 6 hours from 30 min, plus 4.0 mg/kg bolus at 12 hours, n=10): 127.5±18 mm^3
decrease in infarct size vs vehicle (2.04 mg/kg/hr infusion plus 4.0 mg/kg bolus, p=0.003): 41±5%

— US8772237B2, “Compositions and methods for counteracting effects of reactive oxygen species and free radicals” (Ischemix, Inc., priority 1999, dated 2014)
